One assay addresses SmTGR-U597C (Schistosoma mansoni, UniProt Q962Y6). In words: X-ray crystallography fragment soaking and co-crystallization. Format: binding. To be noted: crystal structure of SmTGR-U597C, soaking or co-crystallization.
Assay [1] deals with T1, SmTGR WT (Schistosoma mansoni, UniProt Q962Y6). In words: biochemical.
Assay [2] addresses T1, SmTGR WT. In words: Steady-state competition experiments versus NADPH. The conditions noted are these: upon increasing compound concentration from 0 to 3 mM. Format: biochemical.
The next assay deals with SmTGR-E330A/D334A (Schistosoma mansoni, UniProt Q962Y6, D334A/E330A). In words: DTNB assay on SmTGR-E330A/D334A double mutant. Format: biochemical. To be noted: 500 μM compound.
The target in a further assay is T2, SmTGR-E337A (Schistosoma mansoni, UniProt Q962Y6, E337A).
T2 sequence (Q962Y6 1-598 E337A): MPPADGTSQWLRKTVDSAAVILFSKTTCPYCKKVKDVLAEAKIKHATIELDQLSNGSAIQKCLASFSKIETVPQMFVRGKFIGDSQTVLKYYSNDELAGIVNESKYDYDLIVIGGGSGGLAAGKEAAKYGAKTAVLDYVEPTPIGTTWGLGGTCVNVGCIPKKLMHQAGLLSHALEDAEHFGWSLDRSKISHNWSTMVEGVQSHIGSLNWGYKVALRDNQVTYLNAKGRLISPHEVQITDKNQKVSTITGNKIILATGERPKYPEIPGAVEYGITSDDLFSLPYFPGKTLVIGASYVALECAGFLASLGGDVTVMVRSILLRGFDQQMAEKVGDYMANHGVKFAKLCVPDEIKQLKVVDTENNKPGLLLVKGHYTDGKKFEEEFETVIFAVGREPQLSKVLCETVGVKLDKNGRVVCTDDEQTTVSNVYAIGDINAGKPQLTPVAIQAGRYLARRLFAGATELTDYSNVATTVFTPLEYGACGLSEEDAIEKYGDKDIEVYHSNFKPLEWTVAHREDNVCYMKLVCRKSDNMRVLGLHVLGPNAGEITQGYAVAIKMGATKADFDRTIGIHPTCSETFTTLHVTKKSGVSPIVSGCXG
In words: biochemical.

`COc1nc2ccccc2nc1CCC(=O)O` [Compound 1, 3-(3-methoxyquinoxalin-2-yl)propanoic acid]: the Binding site entry at SmTGR-U597C is “Site 1 (both insoakingand in co-crystallization experiments)”. For the same compound, the IC50 (as a rule, the concentration that inhibits the measured activity by half) against SmTGR WT [1] is greater than 3000 µM.
`Cc1[nH]c2ccccc2c1CC(=O)O` [Compound 2, 2-methylindole-3-acetic acid]: on SmTGR WT [2], the “decrease of Vmax” value was ~ 10%. Moreover, at SmTGR-U597C, the Binding site result is given as “Site 1”. The same compound returned a half-maximal inhibitory concentration (IC50) against SmTGR WT [1] greater than 1000 µM.
In the case of `Nc1cccc2nsnc12` [Compound 3, 4-aminopiazthiole], on SmTGR-U597C, the Binding site entry is listed as “Site 2”. For the same compound, at SmTGR WT [1], the IC50 was roughly 500 µM. In addition, on SmTGR WT [1] (read-out: % of inhibition at 500 μM), the inhibition – broadly, the relative decrease from the control value, in per cent – at 500 µM came out at 51.4 ± 4.1%. Further, the “percentage of inhibition at 500 μM” value on SmTGR-E330A/D334A turned out to be 48.1 ± 6.2%.
For `OCc1c[nH]c2ccccc12` [Compound 4, indole-3-carbinol], the results for the IC50 on SmTGR-E337A and against SmTGR WT [1] were 283 ± 15 µM and 284 ± 12 µM, respectively. The Binding site result on SmTGR-U597C is given as “Site 2”.
With `Cc1ccc2c(O)c(C(=O)O)cnc2n1` [Compound 5, 4-hydroxy-7-methyl-1,8-naphthyridine-3-carboxylic acid], the Binding site result on SmTGR-U597C was “Site 3”.

For the origin of these results see PMC8273128 (ACS infectious diseases, 2021).
